Legend:
Format in all cases: biochemical
Ube1 [1] = target: T1, Ube1 (Homo sapiens, UniProt P22314); assay: Gel-based Ube1~Ub thioester assay with purified Ube1; also on-bead UPS-CONA with Ube1 alone (IC50 below […])
T1 construct: gene UBA1
T1 sequence (P22314 2-1058): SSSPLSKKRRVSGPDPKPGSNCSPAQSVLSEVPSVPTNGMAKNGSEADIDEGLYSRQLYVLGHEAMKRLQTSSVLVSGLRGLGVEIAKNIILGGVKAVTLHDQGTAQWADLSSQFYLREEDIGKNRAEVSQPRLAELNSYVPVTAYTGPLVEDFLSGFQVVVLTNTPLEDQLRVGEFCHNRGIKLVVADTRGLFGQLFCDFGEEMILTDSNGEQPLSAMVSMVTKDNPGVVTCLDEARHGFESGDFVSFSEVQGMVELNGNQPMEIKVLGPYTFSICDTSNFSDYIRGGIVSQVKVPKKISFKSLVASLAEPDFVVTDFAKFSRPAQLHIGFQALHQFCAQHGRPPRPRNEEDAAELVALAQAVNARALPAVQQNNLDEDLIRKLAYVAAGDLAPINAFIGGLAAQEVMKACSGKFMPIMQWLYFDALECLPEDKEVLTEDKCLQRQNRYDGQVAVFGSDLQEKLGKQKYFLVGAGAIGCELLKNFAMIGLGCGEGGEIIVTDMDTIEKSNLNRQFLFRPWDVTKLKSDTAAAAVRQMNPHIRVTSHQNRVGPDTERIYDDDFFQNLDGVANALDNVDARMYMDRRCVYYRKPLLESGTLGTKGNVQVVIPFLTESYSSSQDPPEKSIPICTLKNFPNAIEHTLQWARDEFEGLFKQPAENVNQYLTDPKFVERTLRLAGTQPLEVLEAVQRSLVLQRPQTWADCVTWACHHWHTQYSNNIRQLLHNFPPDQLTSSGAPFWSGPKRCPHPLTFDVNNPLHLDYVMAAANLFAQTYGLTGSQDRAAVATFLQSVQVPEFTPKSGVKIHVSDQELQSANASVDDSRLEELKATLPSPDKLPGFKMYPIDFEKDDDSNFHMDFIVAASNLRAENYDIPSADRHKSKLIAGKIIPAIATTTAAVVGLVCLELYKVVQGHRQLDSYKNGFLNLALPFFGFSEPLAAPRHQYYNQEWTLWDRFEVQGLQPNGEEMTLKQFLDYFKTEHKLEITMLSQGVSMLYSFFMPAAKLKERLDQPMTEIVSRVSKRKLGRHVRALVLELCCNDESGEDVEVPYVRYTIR

Ube2L3 = target: T2, Ube2L3 (Homo sapiens, UniProt P68036); assay: On-bead UPS-CONA, concentration-dependent inhibition on eGFP-Ube2L3
T2 construct: eGFP-Ube2L3

Ube1 [2] = target: T1, Ube1; assay: Gel-based Ube1~Ub thioester assay and on-bead UPS-CONA with Ube1 alone

T2 sequence (P68036 whole entry, one chain of several): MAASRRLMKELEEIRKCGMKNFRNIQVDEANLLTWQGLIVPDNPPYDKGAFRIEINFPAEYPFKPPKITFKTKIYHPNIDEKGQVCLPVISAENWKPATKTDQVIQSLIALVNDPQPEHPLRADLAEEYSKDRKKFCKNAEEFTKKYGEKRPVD

SMILES | IC50 (Ube1 [1]) | IC50 (Ube2L3) | IC50 (Ube1 [2])
Cc1ccc(S(=O)(=O)/C=C/C#N)cc1 [BAY 11-7082] | ~4.6 µM | 7.5 µM | –
CCc1ccc(/C=C/C(=O)Nc2ccc(C(C)=O)cc2)o1 [heclin] | – | – | 16 µM

Reference: paper PMC6086040, “Real-time tracking of complex ubiquitination cascades using a fluorescent confocal on-bead assay” (BMC Biology, 2018)
